23 compounds from patent publication US20240043439A1, “COMPOUNDS AS C5AR INHIBITORS” (Kira Pharmaceuticals (Suzhou) Ltd., priority 2020, published 2024) can be followed below.

Molecules are shown by their SMILES. Where only a bound is given, the exact number is not on record here.

The target of experiment [1] is human C5a receptor (C5aR) (Homo sapiens (Human), UniProt P21730). Put plainly: Inhibition of C5a-C5aR binding (biotinylated human C5a, U937/C5aR cells, FACS). The method, boiled down: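 Binding read by flow cytometry as FITC-streptavidin signal (30 min on ice) on washed cells after a 120 min on-ice incubation of compound with biotinylated human C5a (30 nM working solution). Cells used were C5aR-transfected U937, suspended at 3×10^6 cells/ml in PBS containing 0.1% BSA.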
human C5a receptor (C5aR), sequence (P21730 whole entry): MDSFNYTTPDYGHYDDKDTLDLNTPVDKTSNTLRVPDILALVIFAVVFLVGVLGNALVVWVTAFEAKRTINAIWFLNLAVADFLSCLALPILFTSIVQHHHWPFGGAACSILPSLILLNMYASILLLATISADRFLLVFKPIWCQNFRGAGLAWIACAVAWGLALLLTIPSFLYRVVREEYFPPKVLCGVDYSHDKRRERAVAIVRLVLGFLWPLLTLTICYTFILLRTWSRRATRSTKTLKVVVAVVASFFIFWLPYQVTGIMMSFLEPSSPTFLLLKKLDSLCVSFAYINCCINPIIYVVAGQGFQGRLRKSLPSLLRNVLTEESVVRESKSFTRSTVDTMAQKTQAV

For experiment [2], the target named is C5aR (Homo sapiens (Human), UniProt P21730). Briefly: Calcium mobilization (U937/C5aR or HEK293/C5aR cells, FLIPR). It is filed as cell-based. Particulars: agonist human C5a at EC80, FLIPR. The method, boiled down:
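FLIPR calcium-flux read-out using Fluo-4 Direct-loaded C5aR-expressing U937 or HEK293 cells stimulated with human C5a at its EC80. Compound was applied for 60 min before dye loading (50 min at 37 °C plus 10 min at room temperature) and agonist addition.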
A general note: A change in cytosolic calcium serves as a functional read-out for many receptors and channels.

C5aR, sequence (P21730 whole entry): as above

As usually defined, the IC50 is the concentration at which inhibition is half-maximal. As for `Cc1ccc(NC(=O)[C@H]2CCCN(S(=O)(=O)c3c(C)noc3C)[C@H]2c2ccc(NC3CCCC3)cc2)cc1C(F)(F)F` [Compound 8, (2R,3S)-2-(4-(cyclopentylamino)phenyl)-1-((3,5-dimethylisoxazol-4-yl)sulfonyl)-N-(4-methyl-3-(trifluoromethyl)phenyl)piperidine-3-carboxamide], the IC50 was 2 to 5 µM in experiment [1] and 2 to 10 µM in experiment [2].

On to `Cc1ccc(S(=O)(=O)N2CCC[C@H](C(=O)Nc3ccc(C)c(C(F)(F)F)c3)[C@@H]2c2ccc(NC3CCCC3)cc2)c(C)c1` [Compound 9, (2R,3S)-2-(4-(cyclopentylamino)phenyl)-1-((2,4-dimethylphenyl)sulfonyl)-N-(4-methyl-3-(trifluoromethyl)phenyl)piperidine-3-carboxamide], for which the half-maximal inhibitory concentration (IC50) in experiment [1] lay within 2 to 5 µM; in experiment [2] it was 2 to 10 µM.

Turning to `Cc1ccc(C)c(S(=O)(=O)N2CCC[C@H](C(=O)Nc3ccc(C)c(C(F)(F)F)c3)[C@@H]2c2ccc(NC3CCCC3)cc2)c1` [Compound 10, (2R,3S)-2-(4-(cyclopentylamino)phenyl)-1-((2,5-dimethylphenyl)sulfonyl)-N-(4-methyl-3-(trifluoromethyl)phenyl)piperidine-3-carboxamide], the IC50 in experiment [1] is 0.5 to 2 µM; in experiment [2], > 10 µM.

`Cc1ccc(NC(=O)[C@H]2CCCN(S(=O)(=O)c3c(C)cccc3C)[C@H]2c2ccc(NC3CCCC3)cc2)cc1C(F)(F)F` [Compound 11, (2R,3S)-2-(4-(cyclopentylamino)phenyl)-1-((2,6-dimethylphenyl)sulfonyl)-N-(4-methyl-3-(trifluoromethyl)phenyl)piperidine-3-carboxamide]: the half-maximal inhibitory concentration (IC50) was in the range of 0.5 to 2 µM in experiment [1] and 2 to 10 µM in experiment [2].

For `Cc1cc(C)c(S(=O)(=O)N2CCC[C@H](C(=O)Nc3ccc(C)c(C(F)(F)F)c3)[C@@H]2c2ccc(NC3CCCC3)cc2)c(C)c1` [Compound 13, (2R,3S)-2-(4-(cyclopentylamino)phenyl)-1-(mesitylsulfonyl)-N-(4-methyl-3-(trifluoromethyl)phenyl)piperidine-3-carboxamide], the IC50 lay within 2 to 5 µM in experiment [1] and 2 to 10 µM in experiment [2].

`Cc1ccc(NC(=O)[C@H]2CCCN(S(=O)(=O)c3ccccc3[N+](=O)[O-])[C@H]2c2ccc(NC3CCCC3)cc2)cc1C(F)(F)F` [Compound 14, (2R,3S)-2-(4-(cyclopentylamino)phenyl)-N-(4-methyl-3-(trifluoromethyl)phenyl)-1-((2-nitrophenyl)sulfonyl)piperidine-3-carboxamide]: the half-maximal inhibitory concentration (IC50) lay within 2 to 5 µM in experiment [1] and 2 to 10 µM in experiment [2].

Consider `Cc1ccc(NC(=O)[C@H]2CCCN(S(=O)(=O)c3ccc(F)cc3C)[C@H]2c2ccc(NC3CCCC3)cc2)cc1C(F)(F)F` [Compound 15, (2R,3S)-2-(4-(cyclopentylamino)phenyl)-1-((4-fluoro-2-methylphenyl)sulfonyl)-N-(4-methyl-3-(trifluoromethyl)phenyl)piperidine-3-carboxamide], for which the IC50 in experiment [1] was 2 to 5 µM; in experiment [2], 2 to 10 µM.

As for `Cc1ccc(NC(=O)[C@H]2CCCN(S(=O)(=O)c3cccc(Cl)c3C)[C@H]2c2ccc(NC3CCCC3)cc2)cc1C(F)(F)F` [Compound 16, (2R,3S)-1-((3-chloro-2-methylphenyl)sulfonyl)-2-(4-(cyclopentylamino)phenyl)-N-(4-methyl-3-(trifluoromethyl)phenyl)piperidine-3-carboxamide], the 50% inhibitory concentration (IC50) in experiment [1] is 2 to 5 µM; in experiment [2], > 10 µM.

Turning to `Cc1ccc(NC(=O)[C@H]2CCCN(S(=O)(=O)c3cc(F)ccc3C)[C@H]2c2ccc(NC3CCCC3)cc2)cc1C(F)(F)F` [Compound 17, (2R,3S)-2-(4-(cyclopentylamino)phenyl)-1-((5-fluoro-2-methylphenyl)sulfonyl)-N-(4-methyl-3-(trifluoromethyl)phenyl)piperidine-3-carboxamide], the 50% inhibitory concentration (IC50) in experiment [1] lay in the range of 0.5 to 2 µM; in experiment [2], 2 to 10 µM.

As to `Cc1ccc(NC(=O)[C@H]2CCCN(S(=O)(=O)c3cccc(F)c3C)[C@H]2c2ccc(NC3CCCC3)cc2)cc1C(F)(F)F` [Compound 18, (2R,3S)-1-((3-fluoro-2-methylphenyl)sulfonyl)-2-(4-(cyclopentylamino)phenyl)-N-(4-methyl-3-(trifluoromethyl)phenyl)piperidine-3-carboxamide], the half-maximal inhibitory concentration (IC50) was 2 to 5 µM in experiment [1] and > 10 µM in experiment [2].

Regarding `Cc1ccc(NC(=O)[C@H]2CCCN(S(=O)(=O)c3c(F)cccc3F)[C@H]2c2ccc(NC3CCCC3)cc2)cc1C(F)(F)F` [Compound 19, (2R,3S)-2-(4-(cyclopentylamino)phenyl)-1-((2,6-difluorophenyl)sulfonyl)-N-(4-methyl-3-(trifluoromethyl)phenyl)piperidine-3-carboxamide], the half-inhibitory concentration (IC50) in experiment [1] lay within 2 to 5 µM; in experiment [2], 2 to 10 µM.

Take `Cc1ccc(NC(=O)[C@H]2CCCN(S(=O)(=O)c3c(Cl)cccc3Cl)[C@H]2c2ccc(NC3CCCC3)cc2)cc1C(F)(F)F` [Compound 20, (2R,3S)-2-(4-(cyclopentylamino)phenyl)-1-((2,6-dichlorophenyl)sulfonyl)-N-(4-methyl-3-(trifluoromethyl)phenyl)piperidine-3-carboxamide]: the IC50 was 2 to 5 µM in experiment [1] and > 10 µM in experiment [2].

Consider `Cc1ccc(NC(=O)[C@H]2CCCN(S(=O)(=O)c3ccccc3C)[C@H]2c2ccc(NC3CCCC3)cc2)cc1C(F)(F)F` [Compound 22, (2R,3S)-2-(4-(cyclopentylamino)phenyl)-N-(4-methyl-3-(trifluoromethyl)phenyl)-1-(o-tolylsulfonyl)piperidine-3-carboxamide], for which the IC50 in experiment [1] was 0.5 to 2 µM; in experiment [2], > 10 µM.

As for `COc1ccccc1S(=O)(=O)N1CCC[C@H](C(=O)Nc2ccc(C)c(C(F)(F)F)c2)[C@@H]1c1ccc(NC2CCCC2)cc1` [Compound 23, (2R,3S)-2-(4-(cyclopentylamino)phenyl)-1-((2-methoxyphenyl)sulfonyl)-N-(4-methyl-3-(trifluoromethyl)phenyl)piperidine-3-carboxamide], the IC50 in experiment [1] was 2 to 5 µM; in experiment [2] it was 2 to 10 µM.

In the case of `Cc1ccc(NC(=O)[C@H]2CCCN(S(=O)(=O)c3ccccc3OC(F)(F)F)[C@H]2c2ccc(NC3CCCC3)cc2)cc1C(F)(F)F` [Compound 24, (2R,3S)-2-(4-(cyclopentylamino)phenyl)-N-(4-methyl-3-(trifluoromethyl)phenyl)-1-((2-(trifluoromethoxy)phenyl)sulfonyl)piperidine-3-carboxamide], the values for the concentration for half-maximal inhibition (IC50) in experiment [1] and in experiment [2] were 2 to 5 µM and > 10 µM, respectively.

On to `Cc1ccc(NC(=O)[C@H]2CCCN(S(=O)(=O)c3ccccc3F)[C@H]2c2ccc(NC3CCCC3)cc2)cc1C(F)(F)F` [Compound 25, (2R,3S)-2-(4-(cyclopentylamino)phenyl)-1-((2-fluorophenyl)sulfonyl)-N-(4-methyl-3-(trifluoromethyl)phenyl)piperidine-3-carboxamide], for which the half-maximal inhibitory concentration (IC50) was 0.5 to 2 µM in experiment [1] and > 10 µM in experiment [2].

Take `Cc1ccc(NC(=O)[C@H]2CCCN(S(=O)(=O)c3ccccc3Cl)[C@H]2c2ccc(NC3CCCC3)cc2)cc1C(F)(F)F` [Compound 26, (2R,3S)-1-((2-chlorophenyl)sulfonyl)-2-(4-(cyclopentylamino)phenyl)-N-(4-methyl-3-(trifluoromethyl)phenyl)piperidine-3-carboxamide]: the half-maximal inhibitory concentration (IC50) is 2 to 5 µM in experiment [1] and > 10 µM in experiment [2].

Take `Cc1ccc(NC(=O)[C@H]2CCCN(S(=O)(=O)c3ccccc3Br)[C@H]2c2ccc(NC3CCCC3)cc2)cc1C(F)(F)F` [Compound 27, (2R,3S)-1-((2-bromophenyl)sulfonyl)-2-(4-(cyclopentylamino)phenyl)-N-(4-methyl-3-(trifluoromethyl)phenyl)piperidine-3-carboxamide]: the 50% inhibitory concentration (IC50) in experiment [1] was 2 to 5 µM; in experiment [2], 2 to 10 µM.

On to `Cc1ccc(NC(=O)[C@H]2CCCN(S(=O)(=O)c3ccccc3C(F)(F)F)[C@H]2c2ccc(NC3CCCC3)cc2)cc1C(F)(F)F` [Compound 28, (2R,3S)-2-(4-(cyclopentylamino)phenyl)-N-(4-methyl-3-(trifluoromethyl)phenyl)-1-((2-(trifluoromethyl)phenyl)sulfonyl)piperidine-3-carboxamide], for which the concentration for half-maximal inhibition (IC50) in experiment [1] fell in the range of 2 to 5 µM; in experiment [2], 2 to 10 µM.

Take `Cc1ccc(NC(=O)[C@H]2CCCN(S(=O)(=O)c3ccccc3S(C)(=O)=O)[C@H]2c2ccc(NC3CCCC3)cc2)cc1C(F)(F)F` [Compound 29, (2R,3S)-2-(4-(cyclopentylamino)phenyl)-N-(4-methyl-3-(trifluoromethyl)phenyl)-1-((2-(methylsulfonyl)phenyl)sulfonyl)piperidine-3-carboxamide]: the figures for the IC50 in experiment [1] and in experiment [2] were 2 to 5 µM and 2 to 10 µM, respectively.

With `Cc1ccc(NC(=O)[C@H]2CCCN(S(=O)(=O)c3ccccc3C#N)[C@H]2c2ccc(NC3CCCC3)cc2)cc1C(F)(F)F` [Compound 30, (2R,3S)-1-((2-cyanophenyl)sulfonyl)-2-(4-(cyclopentylamino)phenyl)-N-(4-methyl-3-(trifluoromethyl)phenyl)piperidine-3-carboxamide], the 50% inhibitory concentration (IC50) in experiment [1] fell in the range of 2 to 5 µM; in experiment [2] it was 2 to 10 µM.

With `Cc1ccc(NC(=O)[C@H]2CCCN(S(=O)(=O)c3ccc4ccccc4c3)[C@H]2c2ccc(NC3CCCC3)cc2)cc1C(F)(F)F` [Compound 32, (2R,3S)-2-(4-(cyclopentylamino)phenyl)-N-(4-methyl-3-(trifluoromethyl)phenyl)-1-(naphthalen-2-ylsulfonyl)piperidine-3-carboxamide], the IC50 lay within 2 to 5 µM in experiment [1] and 2 to 10 µM in experiment [2].

Regarding `Cc1ccc(NC(=O)[C@H]2CCCN(S(=O)(=O)c3cccc4ccccc34)[C@H]2c2ccc(NC3CCCC3)cc2)cc1C(F)(F)F` [Compound 33, (2R,3S)-2-(4-(cyclopentylamino)phenyl)-N-(4-methyl-3-(trifluoromethyl)phenyl)-1-(naphthalen-1-ylsulfonyl)piperidine-3-carboxamide], the IC50 is 2 to 5 µM in experiment [1] and 2 to 10 µM in experiment [2].
